Measured values taken from ChEMBL document CHEMBL5523719, “Structure-activity relationship study of new carbazole sulfonamide derivatives as anticancer agents with dual-target mechanism” (Eur J Med Chem, 2024).
Activity calls are given as the source filed them. No cut-off for these calls is given here.

Legend:
MDA-MB-231 = assay: Antiproliferation activity against human MDA-MB-231 cells measured after 72 hrs incubation by MTT assay; assay type: functional, cell-based; details: MDA-MB-231, 72 h
MIA PaCa-2 = assay: Antiproliferation activity against human MIA PaCa-2 cells measured after 72 hrs incubation by MTT assay; assay type: functional, cell-based; details: MIA PaCa-2, 72 h
NCI-H460 = assay: Antiproliferation activity against human NCI-H460 cells measured after 72 hrs incubation by MTT assay; assay type: functional, cell-based; details: NCI-H460, 72 h
KB = assay: Antiproliferation activity against human KB cells measured after 72 hrs incubation by MTT assay; assay type: functional, cell-based
L02 = assay: Antiproliferation activity against human L02 cells measured after 72 hrs incubation by MTT assay; assay type: functional, cell-based; details: L02, 72 h
MCF7 [1] = assay: Antiproliferation activity against human MCF7 cells measured after 72 hrs incubation by MTT assay; assay type: functional, cell-based; details: MCF7, 72 h
NCI/ADR-RES = assay: Antiproliferation activity against human MCF7/ADR cells measured after 72 hrs incubation by MTT assay; assay type: functional, cell-based
Tubulin (Homo sapiens) [2] = molecular target: T1, Tubulin (Homo sapiens) (UniProt P68371+Q9H4B7+P0DPH7+P68366+Q13509+Q71U36+P04350+Q3ZCM7+P07437+P68363+Q9BQE3+Q6PEY2+Q13885+Q9BVA1+Q9BUF5); assay: In vitro inhibition of microtubule (unknown origin) assembly at 10 uM; assay type: protein-complex assay
Tubulin (Homo sapiens) [3] = molecular target: T1, Tubulin (Homo sapiens); assay: Inhibition of microtubule assembly in human MCF7 cells assessed as disrupted microtubule network at 50 uM measured after 24 hrs incubation by anti-alpha-tubulin antibody (green) and Hoechst 33342 (blue) stained nuclei were obtained under microscopy; assay type: cell-based
Tubulin (Homo sapiens) [4] = molecular target: T1, Tubulin (Homo sapiens); assay: Inhibition of microtubule assembly in human HepG2 cells assessed as disrupted microtubule network at 50 uM measured after 24 hrs incubation by anti-alpha-tubulin antibody (green) and Hoechst 33342 (blue) stained nuclei were obtained under microscopy; assay type: cell-based
[5] = molecular target: Tubulin beta (Homo sapiens) (UniProt P68371+Q9H4B7+Q13509+P04350+Q3ZCM7+P07437+Q13885+Q9BVA1+Q9BUF5+A6NNZ2); assay: Binding affinity to beta-tubulin colchicine binding site in human MCF7 cells assessed as inhibition of EBI-beta-tubulin adduct band formation preincubated for 2 hrs followed by EBI addition measured after 2 hrs by EBI competition based Western blotting analysis; assay type: cell-based; details: dose 12.5-100 nM
MCF7 [6] = assay: Induction of cell cycle arrest in human MCF7 cells assessed as accumulation of cells at G2/M phase at 4 nM measured after 24 hrs by flow cytometry (reference value: 22.84%); assay type: functional
MCF7 [7] = assay: Induction of cell cycle arrest in human MCF7 cells assessed as accumulation of cells at G2/M phase at 25 nM measured after 24 hrs by flow cytometry (reference value: 22.84%); assay type: functional
MCF7 [8] = assay: Induction of cell cycle arrest in human MCF7 cells assessed as accumulation of cells at G2/M phase at 100 nM measured after 24 hrs by flow cytometry (reference value: 22.84%); assay type: functional
MCF7 [9] = assay: Induction of cell cycle arrest in human MCF7 cells assessed as accumulation of cells at G2/M phase at 500 nM measured after 24 hrs by flow cytometry (reference value: 22.84%); assay type: functional
MCF7 [10] = assay: Induction of cell cycle arrest in human MCF7 cells assessed as accumulation of cells at G0/G1 phase at 4 nM measured after 24 hrs by flow cytometry (reference value: 61.73%); assay type: functional
MCF7 [11] = assay: Induction of cell cycle arrest in human MCF7 cells assessed as accumulation of cells at G0/G1 phase at 25 nM measured after 24 hrs by flow cytometry (reference value: 61.73%); assay type: functional
MCF7 [12] = assay: Induction of cell cycle arrest in human MCF7 cells assessed as accumulation of cells at G0/G1 phase at 100 nM measured after 24 hrs by flow cytometry (reference value: 61.73%); assay type: functional
MCF7 [13] = assay: Induction of cell cycle arrest in human MCF7 cells assessed as accumulation of cells at G0/G1 phase at 500 nM measured after 24 hrs by flow cytometry (reference value: 61.73%); assay type: functional
MCF7 [14] = assay: Induction of cell cycle arrest in human MCF7 cells assessed as increase in cyclin B1 protein expression at […] by Western blot analysis; assay type: functional, cell-based; details: dose lower 6.25 µM
MCF7 [15] = assay: Induction of cell cycle arrest in human MCF7 cells assessed as increase in phosphorylation of histone H3 at […] by Western blot analysis; assay type: functional, cell-based; details: dose lower 6.25 µM
MCF7 [16] = assay: Induction of apoptosis in human MCF7 cells assessed as early apoptotic cells at 6.25 nM measured after 48 hrs by AnnexinV/PI double staining assays (reference value: 5.32%); assay type: functional
MCF7 [17] = assay: Induction of apoptosis in human MCF7 cells assessed as viable cells at 6.25 nM measured after 48 hrs by AnnexinV/PI double staining assays (reference value: 91.20%); assay type: functional; details: read-out: Activity
MCF7 [18] = assay: Induction of apoptosis in human MCF7 cells assessed as late apoptotic cells at 6.25 nM measured after 48 hrs by AnnexinV/PI double staining assays (reference value: 2.60%); assay type: functional
MCF7 [19] = assay: Induction of apoptosis in human MCF7 cells assessed as necrotic cells at 6.25 nM measured after 48 hrs by AnnexinV/PI double staining assays (reference value: 0.89%); assay type: functional
MCF7 [20] = assay: Induction of apoptosis in human MCF7 cells assessed as viable cells at 12.5 nM measured after 48 hrs by AnnexinV/PI double staining assays (reference value: 91.20%); assay type: functional; details: read-out: Activity
MCF7 [21] = assay: Induction of apoptosis in human MCF7 cells assessed as early apoptotic cells at 12.5 nM measured after 48 hrs by AnnexinV/PI double staining assays (reference value: 5.32%); assay type: functional
MCF7 [22] = assay: Induction of apoptosis in human MCF7 cells assessed as late apoptotic cells at 12.5 nM measured after 48 hrs by AnnexinV/PI double staining assays (reference value: 2.60%); assay type: functional
MCF7 [23] = assay: Induction of apoptosis in human MCF7 cells assessed as necrotic cells at 12.5 nM measured after 48 hrs by AnnexinV/PI double staining assays (reference value: 0.89%); assay type: functional
MCF7 [24] = assay: Induction of apoptosis in human MCF7 cells assessed as viable cells at 25 nM measured after 48 hrs by AnnexinV/PI double staining assays (reference value: 91.20%); assay type: functional; details: read-out: Activity
MCF7 [25] = assay: Induction of apoptosis in human MCF7 cells assessed as early apoptotic cells at 25 nM measured after 48 hrs by AnnexinV/PI double staining assays (reference value: 5.32%); assay type: functional
MCF7 [26] = assay: Induction of apoptosis in human MCF7 cells assessed as late apoptotic cells at 25 nM measured after 48 hrs by AnnexinV/PI double staining assays (reference value: 2.60%); assay type: functional
MCF7 [27] = assay: Induction of apoptosis in human MCF7 cells assessed as necrotic cells at 25 nM measured after 48 hrs by AnnexinV/PI double staining assays (reference value: 0.89%); assay type: functional
MCF7 [28] = assay: Induction of apoptosis in human MCF7 cells assessed as viable cells at 50 nM measured after 48 hrs by AnnexinV/PI double staining assays (reference value: 91.20%); assay type: functional; details: read-out: Activity
MCF7 [29] = assay: Induction of apoptosis in human MCF7 cells assessed as early apoptotic cells at 50 nM measured after 48 hrs by AnnexinV/PI double staining assays (reference value: 5.32%); assay type: functional
MCF7 [30] = assay: Induction of apoptosis in human MCF7 cells assessed as late apoptotic cells at 50 nM measured after 48 hrs by AnnexinV/PI double staining assays (reference value: 2.60%); assay type: functional
MCF7 [31] = assay: Induction of apoptosis in human MCF7 cells assessed as necrotic cells at 50 nM measured after 48 hrs by AnnexinV/PI double staining assays (reference value: 0.89%); assay type: functional
MCF7 [32] = assay: Induction of apoptosis in human MCF7 cells assessed as multinuclear cells at 5 nM measured after 24 hrs by fluorescent microscopy; assay type: functional
MCF7 [33] = assay: Induction of apoptosis in human MCF7 cells assessed as karyorrhexis at 5 nM measured after 24 hrs by fluorescent microscopy; assay type: functional
HMEC-1 [34] = assay: Anti-proliferative activity against human HMEC-1 cells measured after 48 hrs; assay type: functional, cell-based; details: HMEC-1, 48 h
HMEC-1 [35] = assay: Anti-migration activity in human HMEC-1 cells assessed as inhibition of cell migration at 5 nM measured after 48 hrs by Scratching assay; assay type: functional, cell-based
HMEC-1 [36] = assay: Angiogenic activity against human HMEC-1 cells assessed as decrease in vascular area measured after 48 hrs by Endothelial tube formation assay; assay type: functional, cell-based; details: dose 1-100 nM

`COc1cc(NS(=O)(=O)c2ccc3c(c2)c2ccc(O)cc2n3C)c(OC)cc1Cl` gave an IC50 (MDA-MB-231) of 5.19 nM, an IC50 (MIA PaCa-2) of 0.81 nM and an IC50 (NCI-H460) of 12.4 nM. For the same compound, the IC50 (KB) was 9.37 nM, the IC50 (L02) was 53.7 nM and the IC50 (MCF7 [1]) was 24.3 nM. The IC50 (NCI/ADR-RES) was 7.56 nM, the inhibition (Tubulin (Homo sapiens) [2]) was “Active” and the inhibition (Tubulin (Homo sapiens) [3]) was “Active”. For the same compound, the inhibition (Tubulin (Homo sapiens) [4]) was “Active”, the Activity [5] was “Active” and the Activity (MCF7 [6]) was 17.8%. The Activity (MCF7 [7]) was 17.8%, the Activity (MCF7 [8]) was 17.8% and the Activity (MCF7 [9]) was 50.6%. The Activity (MCF7 [10]) was 37.05%, the Activity (MCF7 [11]) was 6.65% and the Activity (MCF7 [12]) was 3.93%. The Activity (MCF7 [13]) was 3.82%, the Activity (MCF7 [14]) was “Dose-Dependent Effect” and the Activity (MCF7 [15]) was “Dose-Dependent Effect”. The Activity (MCF7 [16]) was 34.89%, the viability at 0.00625 µM (MCF7 [17]) was 56.2% and the Activity (MCF7 [18]) was 8.89%. The Activity (MCF7 [19]) was 0.05%, the viability at 0.0125 µM (MCF7 [20]) was 49.2% and the Activity (MCF7 [21]) was 43.24%. The Activity (MCF7 [22]) was 7.54%, the Activity (MCF7 [23]) was 0.06% and the viability at 0.025 µM (MCF7 [24]) was 36.8%. For the same compound, the Activity (MCF7 [25]) was 49.44%, the Activity (MCF7 [26]) was 13.75% and the Activity (MCF7 [27]) was 0.06%. The viability at 0.05 µM (MCF7 [28]) was 46.3%, the Activity (MCF7 [29]) was 42.87% and the Activity (MCF7 [30]) was 10.8%. For the same compound, the Activity (MCF7 [31]) was 0.07%, the Activity (MCF7 [32]) was 46.27% and the Activity (MCF7 [33]) was 42.87%. The IC50 (HMEC-1 [34]) was 6.42 nM, the inhibition (HMEC-1 [35]) was “Active” and the Activity (HMEC-1 [36]) was “Dose-Dependent Effect”.
